Laboratory results published in PMC5609913, “Structure based design, synthesis and activity studies of small hybrid molecules as HDAC and G9a dual inhibitors” (Oncotarget, 2017).
Like-named read-outs stand apart in the source and are kept apart here.

Tests used:
Type in all cases: cell-based
[1] = test system: MCF-7 cells; assay: Cell anti-proliferation / toxicity assay (CCK-8), MCF-7; details: Homo sapiens, MCF7, 72 h, CCK-8, read-out: EC50 MCF-7
Method: (§1) Cell anti-proliferation assays were performed to determine the toxicity of these inhibitors. […] These compounds were further evaluated against the control cell line HEK293 to test their toxicity with a non-cancerous cell line.
And then the cells were exposed to the different inhibitors with various concentrations for 72 h. […] EC50s were calculated using GraphPad Prizm statistical package with sigmoidal variable slope dose response curve fit.

[2] = target: T1, G9a (Homo sapiens, UniProt Q96KQ7); assay: H3K9Me2 cell immunofluorescence In-Cell Western (ICW) assay in MDA-MB-231; details: MDA-MB-231 cell line, 48 h exposure
T1 construct: endogenous in cells; host or cells: MDA-MB-231
T1 sequence (Q96KQ7 1-1210): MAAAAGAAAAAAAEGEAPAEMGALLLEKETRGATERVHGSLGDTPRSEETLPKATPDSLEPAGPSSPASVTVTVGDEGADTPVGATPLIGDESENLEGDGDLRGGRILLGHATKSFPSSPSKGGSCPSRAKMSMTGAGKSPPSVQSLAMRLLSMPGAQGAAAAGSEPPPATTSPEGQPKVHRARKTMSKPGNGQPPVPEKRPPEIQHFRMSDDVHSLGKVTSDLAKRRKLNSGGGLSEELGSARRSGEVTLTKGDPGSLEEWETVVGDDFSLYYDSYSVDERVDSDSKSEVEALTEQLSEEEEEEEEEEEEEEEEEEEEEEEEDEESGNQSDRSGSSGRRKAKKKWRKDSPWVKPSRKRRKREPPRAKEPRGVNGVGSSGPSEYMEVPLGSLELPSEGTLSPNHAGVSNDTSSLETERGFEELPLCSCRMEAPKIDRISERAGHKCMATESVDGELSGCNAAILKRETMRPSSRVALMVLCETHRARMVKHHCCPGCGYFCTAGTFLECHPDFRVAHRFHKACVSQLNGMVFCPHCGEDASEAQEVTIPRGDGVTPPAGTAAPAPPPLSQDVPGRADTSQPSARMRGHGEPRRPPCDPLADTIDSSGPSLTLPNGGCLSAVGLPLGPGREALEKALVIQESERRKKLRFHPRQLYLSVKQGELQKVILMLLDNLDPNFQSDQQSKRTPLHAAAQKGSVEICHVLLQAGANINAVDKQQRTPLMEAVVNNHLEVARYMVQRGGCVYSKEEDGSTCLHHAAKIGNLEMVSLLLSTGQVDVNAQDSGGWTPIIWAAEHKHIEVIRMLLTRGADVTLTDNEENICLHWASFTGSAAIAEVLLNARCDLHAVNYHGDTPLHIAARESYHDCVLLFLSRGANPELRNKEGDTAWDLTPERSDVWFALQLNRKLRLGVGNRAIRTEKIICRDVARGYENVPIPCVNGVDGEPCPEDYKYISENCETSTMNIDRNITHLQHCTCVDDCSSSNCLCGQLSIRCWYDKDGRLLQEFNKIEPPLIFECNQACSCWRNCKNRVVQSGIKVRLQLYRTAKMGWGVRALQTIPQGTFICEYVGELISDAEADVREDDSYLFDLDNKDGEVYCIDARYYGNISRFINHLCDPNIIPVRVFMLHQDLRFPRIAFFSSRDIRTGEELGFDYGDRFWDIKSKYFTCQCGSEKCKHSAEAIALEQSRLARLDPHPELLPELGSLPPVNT
Method: After the incubation, the media was removed and 100 μl fixation and permeabilization solution (2% formaldehyde in PBS) for fixation was added for 30 min. And then use 200 μl 0.1% Triton X100 in PBS washing solution to wash (allow wash to shake on a plate shaker for 5 min). After five washes, cells were blocked for 1 h with 150 μl blocking buffer to each well (1% BSA in PBS) (allow blocking at room temperature with moderate shaking on a plate shaker). After 1 h, remove the blocking buffer from the blocking step and add primary antibody in blocking buffer to cover the bottom of each well. […] The plates were read on an Odyssey CLX (LiCor) scanner at both 800 nm (H3K9me2 signal) and 700 nm (cell tag 700 stain signal) channels. IC50s were calculated using GraphPad Prizm statistical package with sigmoidal variable slope dose response curve fit.

[3] = test system: MDA-MB-231 cells; assay: Cell anti-proliferation / toxicity assay (CCK-8), MDA-MB-231; details: Homo sapiens, MDA-MB-231, 72 h, CCK-8, read-out: EC50 MDA-MB-231
Method: Initial tests designed around assessing whether a synergistic effect would be observed in real when a combination of G9a inhibitor and HDAC inhibitor used in conjunction.
as §1, with “inhibitors. Several cell lines (MDA-MB-231, MCF-7 and A549) were incubated and then treated with varying concentrations of the inhibitors for 72 h, respectively.” for “inhibitors.”
A549, MDA-MB-231, MCF-7 and HEK293 cells were seeded at 8000-10000 cells (100 μl) in white 96-well plates and pre-incubate the plate for 24 h under standard cell culture conditions, respectively. And then the cells were exposed to the different inhibitors with various concentrations for 72 h. Finally, 10 μl of CCK-8 kit solution was added to each well and incubated for 3-4 hours under standard cell culture conditions, and the 96 well plates were measured the absorbance at 450 nm using Perkin–Elmer Wallac Victor ^3V 1420 multi label plate reader (Perkin–Elmer, Wellesley, USA). EC50s were calculated using GraphPad Prizm statistical package with sigmoidal variable slope dose response curve fit.

[4] = Supplementary Table 4, >100 = not reached at 100 μM
[5] = Table 6, mean ± SD of triplicates

IC50 [2] [µM]	SMILES	EC50 [1, 4] [µM]	EC50 [3, 4] [µM]	EC50 [1, 5] [µM]	EC50 [3, 5] [µM]
66.6 ± 3.98	COc1cc2nc(NCCNC(=O)CCCCCC(=O)NO)nc(NC3CCN(C(C)C)CC3)c2cc1OC [Compound 5a, N1-hydroxy-N7-(2-((4-((1-isopropylpiperidin-4-yl)amino)-6,7-dimethoxyquinazolin-2-yl)amino)ethyl)heptanediamide]	> 100	> 100	–	–
87.4 ± 5.44	COc1cc2nc(NCCNC(=O)CCCCCC(=O)NO)nc(NC3CCN(Cc4ccccc4)CC3)c2cc1OC [Compound 5b, N1-(2-((4-((1-benzylpiperidin-4-yl)amino)-6,7-dimethoxyquinazolin-2-yl)amino)ethyl)-N7-hydroxyheptanediamide]	74.6 ± 1.81	12.3 ± 3.27	–	–
47 ± 3.33	COc1ccc2c(NC3CCN(C)CC3)nc(NCCNC(=O)CCCCC(=O)NO)nc2c1 [Compound 15a, N1-hydroxy-N6-(2-((7-methoxy-4-((1-methylpiperidin-4-yl)amino)quinazolin-2-yl)amino)ethyl)adipamide]	> 100	77.6	–	–
54.6 ± 3.05	COc1cc2nc(NCCNC(=O)CCCC(=O)NO)nc(NC3CCN(C(C)C)CC3)c2cc1OC [Compound 7a, N1-hydroxy-N5-(2-((4-((1-isopropylpiperidin-4-yl)amino)-6,7-dimethoxyquinazolin-2-yl)amino)ethyl)glutaramide]	> 100	> 100	–	–
45.7 ± 1.76	COc1ccc2c(NC3CCN(C)CC3)nc(NCCNC(=O)CCCC(=O)NO)nc2c1 [Compound 16a, N1-hydroxy-N5-(2-((7-methoxy-4-((1-methylpiperidin-4-yl)amino)quinazolin-2-yl)amino)ethyl)glutaramide]	> 100	90.5	–	–

Continued, compound first:

SMILES	IC50 [2] [µM]	EC50 [1, 4] [µM]	EC50 [3, 4] [µM]	EC50 [1, 5] [µM]	EC50 [3, 5] [µM]
COc1ccc2c(NC3CCN(Cc4ccccc4)CC3)nc(NCCNC(=O)CCCCC(=O)NO)nc2c1 [Compound 15, N1-(2-((4-((1-benzylpiperidin-4-yl)amino)-7-methoxyquinazolin-2-yl)amino)ethyl)-N6-hydroxyadipamide]	72.1 ± 1.37	> 100	95.2	–	–
COc1ccc2c(NC3CCN(Cc4ccccc4)CC3)nc(NCCNC(=O)CCCC(=O)NO)nc2c1 [Compound 16, N1-(2-((4-((1-benzylpiperidin-4-yl)amino)-7-methoxyquinazolin-2-yl)amino)ethyl)-N5-hydroxyglutaramide]	90.3 ± 3.75	57.3	38.1	–	–
COc1cc2nc(N3CCCN(C)CC3)nc(NC3CCN(C(=O)CCCCCCC(=O)NO)CC3)c2cc1OC [Compound 19, 8-(4-((6,7-dimethoxy-2-(4-methyl-1,4-diazepan-1-yl)quinazolin-4-yl)amino)piperidin-1-yl)-N-hydroxy-8-oxooctanamide]	99.6 ± 3.13	> 100	> 100	–	–
COc1ccc2c(NC3CCN(Cc4ccccc4)CC3)nc(NCCNC(=O)CCCCCC(=O)NO)nc2c1 [Compound 14, N1-(2-((4-((1-benzylpiperidin-4-yl)amino)-7-methoxyquinazolin-2-yl)amino)ethyl)-N7-hydroxyheptanediamide]	7.14 ± 1.62	–	–	37.4 ± 2.2	10 ± 1.66
COc1ccc2c(NC3CCN(Cc4ccccc4)CC3)nc(NCCNC(=O)CCCCCCC(=O)NO)nc2c1 [Compound 13, N1-(2-((4-((1-benzylpiperidin-4-yl)amino)-7-methoxyquinazolin-2-yl)amino)ethyl)-N8-hydroxyoctanediamide]	37.8 ± 2.8	–	–	79.4 ± 2.72	89.3 ± 1.23
COc1cc2nc(NCCNC(=O)CCCCCCC(=O)NO)nc(NC3CCN(C)CC3)c2cc1OC [Compound 4, N1-(2-((6,7-dimethoxy-4-((1-methylpiperidin-4-yl)amino)quinazolin-2-yl)amino)ethyl)-N8-hydroxyoctanediamide]	96.7 ± 1.68	> 100	> 100	–	–
COc1ccc2c(NCCNC(=O)CCCCCC(=O)NO)nc(N3CCCN(C)CC3)nc2c1 [Compound 22, N1-hydroxy-N7-(2-((7-methoxy-2-(4-methyl-1,4-diazepan-1-yl)quinazolin-4-yl)amino)ethyl)heptanediamide]	60.6 ± 3.66	> 100	> 100	–	–
COc1cc2nc(NCCNC(=O)CCCCCCC(=O)NO)nc(NC3CCN(C(C)C)CC3)c2cc1OC [Compound 4a, N1-hydroxy-N8-(2-((4-((1-isopropylpiperidin-4-yl)amino)-6,7-dimethoxyquinazolin-2-yl)amino)ethyl)octanediamide]	74.2 ± 1.94	> 100	> 100	–	–
COc1cc2nc(N3CCCN(C)CC3)nc(NC3CCN(C(=O)CCCCCC(=O)NO)CC3)c2cc1OC [Compound 20, 7-(4-((6,7-dimethoxy-2-(4-methyl-1,4-diazepan-1-yl)quinazolin-4-yl)amino)piperidin-1-yl)-N-hydroxy-7-oxoheptanamide]	97.5 ± 2.78	> 100	> 100	–	–
COc1cc2nc(NCCNC(=O)CCCC(=O)NO)nc(NC3CCN(C)CC3)c2cc1OC [Compound 7, N1-(2-((6,7-dimethoxy-4-((1-methylpiperidin-4-yl)amino)quinazolin-2-yl)amino)ethyl)-N5-hydroxyglutaramide]	76.7 ± 0.89	> 100	> 100	–	–
